Source: patent US9237988B2, “Benzalkonium chloride compositions for inhibiting the hydrolytic activity of endogenous matrix metalloproteinases in dental restorations” (Bisco, Inc., priority 2010, dated 2016)

Target: MMP-9 enzymes (Homo sapiens, UniProt P14780)
Experiment: MMP inhibition after incubation with MMP-9 enzymes, Anaspec SensoLyte Generic MMP Assay Kit
Assay type: biochemical
Settings: for Percent MMP Inhibition at 1 Hour / Percent MMP Inhibition at 4 Hours: aqueous solution; for Percent MMP Inhibition at 1 Hour: 1 hour incubation; for Percent MMP Inhibition at 4 Hours: 4 hours incubation
Protocol: According to another presently expected one exemplary embodiment of the present application, multiple benzalkonium chloride dental solutions were prepared in aqueous solutions in concentrations varying from 0.02% to 2%, and were incubated with MMP-9 enzymes for 4 hours. After both 1 and 4 hours of incubation, standard negative and positive controls were compared to the below concentrations of the test compositions using an Anaspec SensoLyte Generic MMP Assay Kit (#72095, Anaspec, Fremont, Calif., USA), with the resulting MMP inhibitions shown in Tables 1 and 2 below.

[1] = 0.5% BAC by weight, listed as benzalkonium chloride

Chain of MMP-9 enzymes (P14780 94-707): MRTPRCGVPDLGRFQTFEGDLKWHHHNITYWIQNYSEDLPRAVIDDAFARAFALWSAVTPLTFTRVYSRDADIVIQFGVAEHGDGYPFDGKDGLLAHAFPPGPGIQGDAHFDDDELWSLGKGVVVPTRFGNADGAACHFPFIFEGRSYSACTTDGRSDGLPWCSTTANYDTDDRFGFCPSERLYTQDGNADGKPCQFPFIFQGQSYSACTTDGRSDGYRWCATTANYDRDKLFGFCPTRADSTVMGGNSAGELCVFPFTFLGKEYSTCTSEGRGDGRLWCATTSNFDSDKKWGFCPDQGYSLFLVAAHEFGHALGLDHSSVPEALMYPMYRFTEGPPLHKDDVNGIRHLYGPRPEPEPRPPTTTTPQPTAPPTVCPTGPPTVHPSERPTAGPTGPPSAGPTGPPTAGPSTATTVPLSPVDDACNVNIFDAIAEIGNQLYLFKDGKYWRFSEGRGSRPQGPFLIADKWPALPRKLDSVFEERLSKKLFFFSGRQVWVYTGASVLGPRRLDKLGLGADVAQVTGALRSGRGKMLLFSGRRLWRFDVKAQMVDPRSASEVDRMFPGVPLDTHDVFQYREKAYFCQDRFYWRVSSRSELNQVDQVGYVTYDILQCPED

Percent MMP Inhibition at 1 Hour (0.02% BAC by weight): 0%
Percent MMP Inhibition at 4 Hours (0.02% BAC by weight): 3%
Percent MMP Inhibition at 1 Hour (0.05% BAC by weight): 0%
Percent MMP Inhibition at 4 Hours (0.05% BAC by weight): 6%
Percent MMP Inhibition at 1 Hour (0.5% BAC by weight): 96.5%
Percent MMP Inhibition at 1 Hour [1]: 96%
Percent MMP Inhibition at 4 Hours (0.5% BAC by weight): 85%
Percent MMP Inhibition at 4 Hours [1]: at least 85%
Percent MMP Inhibition at 1 Hour (1.0% BAC by weight): 98.3%
Percent MMP Inhibition at 4 Hours (1.0% BAC by weight): 95%
Percent MMP Inhibition at 1 Hour (2.0% BAC by weight): 100%
Percent MMP Inhibition at 4 Hours (2.0% BAC by weight): 100%
MMP inhibition (concentration as low as 0.02% by weight, time not stated): displayed MMP inhibition
Substance: benzalkonium chloride [BAC]
